Experimental data from patent publication US20230250108A1, “TETRAHYDROISOQUINOLINE COMPOUNDS AND USE THEREOF” (JIANGSU SIMCERE PHARMACEUTICAL CO., LTD., priority 2020, published 2023).

What was measured:
[1] = Hepatocellular metabolic stability test, mouse hepatocytes
From the text: (§1) Experimental materials: Human hepatocytes were purchased from Biopredic; mouse hepatocytes were purchased from BioIVT; acetonitrile and methanol were purchased from Merck & Co., Inc.; AOPI dyes were purchased from Nexcelom; dexamethasone was purchased from NIFDC; DMSO was purchased from Beijing Solarbio Science & Technology Co., Ltd.; DPBS (10×), GlutaMAX™-1 (100×) and recombinant human insulin were purchased form Gibco by Life Technologies; fetal bovine serum was purchased from Corning; formic acid was purchased from DIKMAPURE; Isotonic Percoll was purchased from GE Healthcare; alprazolam was purchased from Supelco; caffeine was purchased from ChromaDex.inc; and HEPES, tolbutamide and Williams' Medium E were purchased from Sigma.
(§2) The powder of a test substance was formulated with DMSO into a stock solution with a high concentration, which was diluted to a working solution of 100 μM with acetonitrile prior to use. The final concentration of the test substance was 1 μM.
(§3) 49.5 mL of Williams'E Medium and 0.5 mL of GlutaMAX were mixed as an incubation media. Hepatocyte thawing media and incubation media were placed in a 37° C. water-bath and pre-heated for at least 15 minutes prior to use. A tube of hepatocytes stored at an ultra-low temperature was taken and the hepatocytes were ensured to be at a frozen state at a low temperature prior to thawing. The hepatocytes were rapidly placed in a 37° C. water-bath and gently shaken until all the ice crystals were dispersed, and then after 70% ethanol was sprayed, the hepatocytes were transferred to a biosafety cabinet. The content of the tube was poured into a centrifugal tube containing 50 mL of thawing media and centrifuged at 100 g for 10 minutes. After centrifugation, the thawing media was aspirated, and a sufficient amount of incubation media was added to obtain a cell suspension with a cell density of about 1.5×10^6 cells/mL. The hepatocytes were counted, and the viable cell density was determined using Cellometer Vision, and the survival rate of the hepatocytes must be higher than 75%. The hepatocyte suspension was diluted by using the incubation media to a viable cell density of 0.5×10^6 viable cells/mL.
(§4) 247.5 μL of viable cell (human hepatocytes or mouse hepatocytes) suspension or media were transferred into a 96-well deep-well plate, and the deep-well plate was placed in a vortex incubator and pre-heated for 10 minutes. Incubation of all the samples was performed in parallel duplicate. Test substance (2.5 μL, 100 μM) was added into each well to start the reaction and the deep-well plate was placed in the vortex incubator again. The samples were incubated, and 25 μL of the suspension was taken at 0, 15, 30, 60, 90 and 120 minutes, respectively. 125 μL of acetonitrile containing internal standard (100 nM alprazolam, 200 nM caffeine, and 100 nM tolbutamide) was added to terminate the reaction. The mixture was vortexed for 10 minutes and centrifuged at 3220 g, 4° C. for 30 minutes. After centrifugation, 100 μL of the supernatant was transferred into the loading plate and 150 μL of pure water was added and mixed uniformly for LC-MS/MS analysis.
(§5) All the data calculation was performed by the Microsoft Excel software. The peak area was detected by extracting the ion chromatogram. The in vitro half-life (t1/2) of the parent drug was detected by performing linear fitting of the natural logarithm of elimination percent of the parent drug and time.
(§6) The in vitro half-life (t1/2) was calculated by means of the slope:

[2] = Hepatocellular metabolic stability test, human hepatocytes
From the text: as §1, §2, §3, §4, §5, §6

PRMT5/MEP50 = biological target: T1, PRMT5/MEP50 (Homo sapiens, UniProt O14744); assay: PRMT5 enzymatic activity inhibition experiment (AlphaScreen); format: biochemical
T1 construct: purchased BPS Bioscience Inc. (USA)
T1 sequence (O14744 2-637 limits assumed): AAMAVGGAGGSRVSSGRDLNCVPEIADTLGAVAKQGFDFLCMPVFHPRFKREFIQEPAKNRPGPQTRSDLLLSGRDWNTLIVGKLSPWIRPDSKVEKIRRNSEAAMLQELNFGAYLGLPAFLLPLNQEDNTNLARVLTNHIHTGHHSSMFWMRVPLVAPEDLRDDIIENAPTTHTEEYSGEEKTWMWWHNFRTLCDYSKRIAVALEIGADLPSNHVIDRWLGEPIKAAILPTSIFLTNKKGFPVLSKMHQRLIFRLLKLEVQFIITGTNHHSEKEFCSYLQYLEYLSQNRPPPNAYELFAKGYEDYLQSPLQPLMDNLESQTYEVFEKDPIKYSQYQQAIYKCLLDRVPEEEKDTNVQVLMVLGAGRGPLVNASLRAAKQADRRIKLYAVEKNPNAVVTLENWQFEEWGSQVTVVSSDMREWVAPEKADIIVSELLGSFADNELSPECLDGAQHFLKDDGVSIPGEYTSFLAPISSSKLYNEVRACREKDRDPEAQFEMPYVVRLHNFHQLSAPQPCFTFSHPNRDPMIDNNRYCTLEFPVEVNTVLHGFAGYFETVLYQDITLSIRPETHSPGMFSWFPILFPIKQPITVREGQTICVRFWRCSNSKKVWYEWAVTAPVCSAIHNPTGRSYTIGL
T1 sequence (Q9BQA1 2-342 partner limits assumed): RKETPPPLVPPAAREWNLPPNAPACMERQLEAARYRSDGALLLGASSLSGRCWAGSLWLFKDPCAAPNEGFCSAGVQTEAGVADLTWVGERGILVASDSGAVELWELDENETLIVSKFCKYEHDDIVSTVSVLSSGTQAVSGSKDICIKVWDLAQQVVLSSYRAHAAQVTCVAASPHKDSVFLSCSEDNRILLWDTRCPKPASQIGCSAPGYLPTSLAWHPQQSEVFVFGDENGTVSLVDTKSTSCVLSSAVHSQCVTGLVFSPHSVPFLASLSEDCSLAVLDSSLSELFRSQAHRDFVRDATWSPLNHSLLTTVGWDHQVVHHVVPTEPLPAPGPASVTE
From the text: Materials: PRMT5/MEP50 proteins were purchased from BPS Bioscience Inc. (USA); Histone H4 Peptide substrate was purchased from Sangon Biotech (Shanghai) Co., Ltd.; Anti-Histone H4 (symmetric dimethyl R3) antibody—ChIP Grade was purchased from Abcam PLC. (USA); S-(5′-Adenosyl)-L-methionine chloride dihydrochloride was purchased from Sigma PLC. (USA); 384-well plate, AlphaScreen Streptavidin Donor beads, AlphaScreen Protein A Acceptor beads, and Envision 2104 multi-label Reader were purchased from Perkin-Elmer Instruments (USA) Corporation; and Echo 550 Liquid Handler was purchased from Labcyte Inc. (USA).
Enzymatic activity assay: The compounds were added into a 384-well plate by using the Echo 550 Liquid Handler with the final concentration of 0-1000 nM (initial concentration: 1000 nM, 3-fold dilution, for 10 points), and the DMSO content was 0.5%. 10 μL of a 2× PRMT5/MEP50 solution was added into each well and incubated at room temperature for 30 minutes. 10 μL of 2× PRMT5/MEP50 substrate solution was added to each well to start the reaction and incubated at room temperature for 60 minutes. A 6× detection reagent containing AlphaScreen Protein A Acceptor beads and Anti-Histone H4 (symmetric dimethyl R3) antibodies was prepared and 5 μL was added to each well. The plate was incubated at room temperature for 60 minutes. A 6× detection reagent containing AlphaScreen Streptavidin Donor beads was prepared and 5 μL was added to each well. The plate was incubated at room temperature for 60 minutes. The signal values were detected by using the Envision.

[3] = tested on: Z-138 subcutaneous tumor models; assay: In vivo drug efficacy experiment in mice, Z-138 subcutaneous tumor model
From the text: Experimental materials: Z138 cells were purchased from ATCC; IMDM culture solution, penicillin-streptomycin and 0.25% trypsin-EDTA were purchased from Gibco; horse serum and PBS were purchased from Hyclone; and Matrigel was purchased from Corning.
Animal information: CB17-SCID mice (female, 6-7 weeks, body weight: about 14-20 g) were purchased from Shanghai Lingchang Biotechnology Co., Ltd. The mice were fed in SPF environment and each cage position was individually ventilated. All animals had free access to standard certified commercial laboratory food and water.
Cell culture: Human mantle cell lymphoma Z-138 cell lines were cultured in vitro and the culture conditions involve: IMDM (cell culture solution) supplemented with 10% horse serum and 1% penicillin-streptomycin solution, 37° C., 5% CO2 incubator. Conventional digestion treatment with 0.25% trypsin-EDTA digestion solution was carried out twice a week for passage. When the cell saturation was 85%-90%, and the number reached the requirement, the cells were collected and counted.
Cell inoculation: 0.1 ml/(containing 1×10^7) Z-138 cell suspension (PBS Matrigel=1:1) was inoculated subcutaneously on the right back of each mouse. At day 18 post inoculation, when the average tumor volume measured has reached about 125 mm^3, grouping and administration were performed by using the randomized stratification and grouping method based on the tumor volume and animal body weight. PBS was a phosphate buffer free of Ca and Mg ions, and Matrigel was a matrix gel.
Administration: Compound 002 was administered at the doses of 1.5 mg/kg, 5 mg/kg, or 15 mg/kg, PO, twice daily (BID)×3 weeks. 6 mice per group.
The diameter of the tumor was measured with vernier calipers twice a week. The calculation formula of tumor volume was V=0.5a×b2, wherein a and b represented the long and short diameters of the tumor, respectively. The body weights of the mice were weighed twice a week.
The tumor-inhibiting efficacy of the compound was evaluated using tumor growth inhibition (TGI) (%).
TGI (%)=[(1−(average tumor volume at the end of administration in a certain treatment group−average tumor volume at the beginning of administration in the treatment group)/(average tumor volume at the end of administration in the solvent control group−average tumor volume at the beginning of administration in the solvent control group)]×100%.

[4] = tested doses 1.5, 5, 15 mg/kg BID

SMILES: CCN1CCN(C[C@@H](O)[C@@H]2Cc3ccccc3CN2)C(=O)c2ccc(C(=O)N3CCC4(CC3)CC(OC)C4)cc21.Cl [Compound 002, 1-ethyl-4-((R)-2-hydroxy-2-((S)-1,2,3,4-tetrahydroisoquinolin-3-yl)ethyl)-8-(2-methoxy-7-azaspiro[3.5]nonane-7-carbonyl)-1,2,3,4-tetrahydro-5H-benzo[e][1,4]diazepin-5-one hydrochloride]
- half-life at 1 μM [1]: 1.58 h
- half-life at 1 μM [2]: 4.21 h
- IC50 (PRMT5/MEP50): 4.05 nM
- TGI ([3]; 1.5 mg/kg PO BID x 3 weeks): 36.0%
- Average tumor volume ([3]; 1.5 mg/kg PO BID, 0 Day): 125 mm^3
- Average tumor volume ([3]; 1.5 mg/kg PO BID, 4 Day): 151 mm^3
- Average tumor volume ([3]; 1.5 mg/kg PO BID, 7 Day): 203 mm^3
- Average tumor volume ([3]; 1.5 mg/kg PO BID, 11 Day): 374 mm^3
- Average tumor volume ([3]; 1.5 mg/kg PO BID, 14 Day): 436 mm^3
- Average tumor volume ([3]; 1.5 mg/kg PO BID, 18 Day): 567 mm^3
- Average tumor volume ([3]; 1.5 mg/kg PO BID, 21 Day): 689 mm^3
- TGI ([3]; 5 mg/kg PO BID x 3 weeks): 47.8%
- Average tumor volume ([3]; 5 mg/kg PO BID, 0 Day): 124 mm^3
- Average tumor volume ([3]; 5 mg/kg PO BID, 4 Day): 157 mm^3
- Average tumor volume ([3]; 5 mg/kg PO BID, 7 Day): 197 mm^3
- Average tumor volume ([3]; 5 mg/kg PO BID, 11 Day): 281 mm^3
- Average tumor volume ([3]; 5 mg/kg PO BID, 14 Day): 310 mm^3
- Average tumor volume ([3]; 5 mg/kg PO BID, 18 Day): 452 mm^3
- Average tumor volume ([3]; 5 mg/kg PO BID, 21 Day): 585 mm^3
- TGI ([3]; 15 mg/kg PO BID x 3 weeks): 112.5%
- Average tumor volume ([3]; 15 mg/kg PO BID, 0 Day): 126 mm^3
- Average tumor volume ([3]; 15 mg/kg PO BID, 4 Day): 140 mm^3
- Average tumor volume ([3]; 15 mg/kg PO BID, 7 Day): 113 mm^3
- Average tumor volume ([3]; 15 mg/kg PO BID, 11 Day): 59 mm^3
- Average tumor volume ([3]; 15 mg/kg PO BID, 14 Day): 34 mm^3
- Average tumor volume ([3]; 15 mg/kg PO BID, 18 Day): 18 mm^3
- Average tumor volume ([3]; 15 mg/kg PO BID, 21 Day): 16 mm^3
- Death in mice [3, 4]: nor did they cause any death in mice
- Effect on body weights of the mice [3, 4]: do not significantly affect the body weights of the mice
- Tolerability [3, 4]: the mice can tolerate the doses
- Effect on tumor growth ([3]; twice daily at 1.5 mg/kg, 5 mg/kg and 15 mg/kg): significant inhibitory effects on tumor growth
- Effect on tumor size ([3]; twice daily at 15 mg/kg): effect of shrinking tumor
